Laboratory results: ChEMBL document CHEMBL1143479, “Carbonic anhydrase inhibitors: inhibition of the tumor-associated isozymes IX and XII with a library of aromatic and heteroaromatic sulfonamides” (Bioorg Med Chem Lett, 2005)

Tests used:
Carbonic anhydrase 9 = Carbonic anhydrase 9 (Homo sapiens, UniProt Q16790)
Carbonic anhydrase 12 = Carbonic anhydrase 12 (Homo sapiens, UniProt O43570)
Carbonic anhydrase 2 = Carbonic anhydrase 2 (Homo sapiens, UniProt P00918)
Carbonic anhydrase 1 = Carbonic anhydrase 1 (Homo sapiens, UniProt P00915)
Sequence of Carbonic anhydrase 1 (P00915 whole entry): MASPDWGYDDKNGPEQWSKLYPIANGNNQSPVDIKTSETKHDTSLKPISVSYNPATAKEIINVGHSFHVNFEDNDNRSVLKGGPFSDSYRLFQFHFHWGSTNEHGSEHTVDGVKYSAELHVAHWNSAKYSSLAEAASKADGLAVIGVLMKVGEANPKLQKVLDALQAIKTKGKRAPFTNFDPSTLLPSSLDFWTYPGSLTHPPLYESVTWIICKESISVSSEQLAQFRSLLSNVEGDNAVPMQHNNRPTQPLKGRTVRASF

Sequence of Carbonic anhydrase 12 (O43570 whole entry): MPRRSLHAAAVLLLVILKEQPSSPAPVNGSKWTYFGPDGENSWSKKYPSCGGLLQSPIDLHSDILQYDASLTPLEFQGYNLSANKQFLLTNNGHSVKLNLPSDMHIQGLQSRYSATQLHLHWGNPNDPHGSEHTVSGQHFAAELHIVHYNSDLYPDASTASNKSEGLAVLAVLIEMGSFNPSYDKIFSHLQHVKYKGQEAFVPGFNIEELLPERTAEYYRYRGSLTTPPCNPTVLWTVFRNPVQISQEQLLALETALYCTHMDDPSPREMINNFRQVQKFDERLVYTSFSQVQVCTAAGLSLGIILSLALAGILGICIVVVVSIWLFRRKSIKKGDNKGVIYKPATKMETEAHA

**Q.** With CC(=O)Nc1ccc(Nc2ccc(S(N)(=O)=O)cc2)cc1 as the compound, how does the Ki (Carbonic anhydrase 9) read?
**A.** Its Ki is 37 nM.

**Q.** For CC(C)(C)C(=O)Nc1ccc(S(N)(=O)=O)cc1, which Ki (Carbonic anhydrase 9) is on record?
**A.** The Ki was 136 nM.

**Q.** For CC(C)C(=O)Nc1ccc(S(N)(=O)=O)cc1, which Ki (Carbonic anhydrase 9) is on record?
**A.** Its Ki is 139 nM.

**Q.** CCCC(=O)Nc1ccc(S(N)(=O)=O)cc1 was tested. Which Ki (Carbonic anhydrase 9) did it give?
**A.** The Ki was 83 nM.

**Q.** For NS(=O)(=O)c1ccc(CCNC(=S)Nc2ccccc2)cc1, which Ki (Carbonic anhydrase 12) is on record?
**A.** Its Ki is 24 nM.

**Q.** And the Ki (Carbonic anhydrase 2)?
**A.** The Ki was 53 nM.

**Q.** And the Ki (Carbonic anhydrase 9)?
**A.** Its Ki is 21 nM.

**Q.** And the Ki (Carbonic anhydrase 1)?
**A.** Its Ki is 50 nM.

**Q.** Which Ki (Carbonic anhydrase 9) does the source give for CCCCC(=O)Nc1ccc(S(N)(=O)=O)cc1 here?
**A.** The Ki was 79 nM.

**Q.** NS(=O)(=O)c1ccc(CCNC(=S)Nc2ccc(S(N)(=O)=O)cc2)cc1 was tested. Which Ki (Carbonic anhydrase 12) did it give?
**A.** Its Ki is 79 nM.

**Q.** And the Ki (Carbonic anhydrase 2)?
**A.** Its Ki is 4 nM.

**Q.** And the Ki (Carbonic anhydrase 1)?
**A.** The Ki was 37 nM.

**Q.** What does the source list for NS(=O)(=O)c1cccc(NC(=O)Nc2ccccc2)c1?
**A.** Ki (Carbonic anhydrase 12): 10 nM; Ki (Carbonic anhydrase 9): 14 nM; Ki (Carbonic anhydrase 1): 1500 nM

**Q.** CC(=O)Nc1ccc(S(N)(=O)=O)cc1 was tested. Which Ki (Carbonic anhydrase 12) did it give?
**A.** The Ki was 49 nM.
